Here are results for one molecule from EP0432974A1, “Cyclic renin inhibitors” (MERCK & CO. INC., priority 1989, dated 1991).

pIC50: −log10 of the molar value. Square brackets hold non-standard residues; d marks the D form. Peptide text beside a SMILES is read from it. * marks the point of attachment. Sta = CC(C)C[C@H](N)[C@@H](O)CC(=O)O; Isovaleryl = CC(C)CC(=O)*

One assay deals with human plasma renin. Briefly: human plasma renin IC50 determination at pH 7.4. It counts as biochemical. How it is done: The following method was used for in vitro evaluation of the renin inhibitors of Formula I : The human plasma renin IC50 values for inhibitors of Formula I were determined at pH 7.4 following the procedure described in J. Boger, L.S. Payne, D.S. Perlow, N.S. Lohr, M. Poe, E.H. Blaine, E.H. Ulm, T.W. Schorn, B.I. Lamont, T.Y. Lin, M. Kawai, D.H. Rich and D.F. Veber, J. Med. Chem., 28,1779 (1985).

For assay [1], the system named is sodium-deficient Rhesus monkeys. The assay is described as follows: intravenous evaluation of renin inhibitors in conscious sodium-deficient Rhesus monkeys (blood pressure lowering). Type of assay: in vivo. Particulars: i.v. bolus. The source says:
The following methods were used for in vivo evaluation of the renin inhibitors of Formula I : Intravenous evaluation of renin inhibitors in concious sodium-deficient Rhesus monkeys : Rhesus monkeys, male and female, weighing 2.6-4.5 Kg, were surgically prepared with chronic arterial and venous catheters and vascular access ports for direct monitoring of mean arterial pressure (MAP) and heart rate (HR). The animals were maintained on a low sodium diet (1.2 mmol Nalday) plus friut for a week, and administered LASIX (furosemide) at 2.5 mg/Kg, intramuscularly the evening prior to the experiment The animals had been trained to sit quietly in the chairs with water ad libium for the duration of the experiment. The inhibitors were administered by bolus injection using 0.5% acetic acid-5% dextrose in water as the vehicle (0.4 ml/Kg), and MAP and HR were measured. Blood samples were withdrawn at different time intervals beginning at the nadir of hypotensive response. PRAwas determined as described above. […] A projected ED50 dose for each inhibitor was calculated using the following furmula : ED50 (Test Inhibitor, umoles/Kg) = ED50 (SCRIP) X [ICso (Test Inhibitor)/ICso (SCRIP)], where the IC50 values were determined against human plasma renin. […] Percent inhibition of monkey PRA, changes in MAP and HR were calculated and plotted against time. […]

In the assay on human plasma renin, `CC(C)CC(=O)N[C@@H](Cc1c[nH]cn1)C(=O)N1CCC[C@H]1C(=O)N[C@@H](Cc1ccccc1)C(=O)N[C@@H](Cc1c[nH]cn1)C(=O)N[C@@H](CC(C)C)[C@@H](O)CC(=O)N[C@@H](CC(C)C)C(=O)N[C@@H](Cc1ccccc1)C(N)=O` [SCRIP, Iva-His-Pro-Phe-His-Sta-Leu-Phe-NH2] (Isovaleryl-HPFH[Sta]LF-NH2) gave a pIC50 of 8.43. Also, the “ED50 (i.v. dose required to lower blood pressure by 50% of the maximal response)” value in assay [1] is 0.039 µmol/kg.

As a reminder, the pIC50 is the IC50 on a negative log10 scale, so that one unit is a factor of ten.
